Experimental data: patent US20050054559A1, “Compounds for sustained release of orally delivered drugs” (priority 2000, published 2005)

What was measured:
[1] = Pharmacokinetics of N-phthaloylglycine prodrug (61) in rats (Example 42); format: in vivo, rat; details: oral (61) 240 mg/kg, post dosing
Experimental: The pharmacokinetics of the N-phthaloylglycine prodrug (61) is examined in rats. […] Serial blood samples are obtained over 24 hours following dosing and blood is processed for plasma by centrifugation. Plasma samples are stored at −80° C. until analyzed. Concentrations of N-phthaloylglycine or (61) in plasma samples are determined by LC/MS/MS.

[2] = In vitro enzymatic release in rat plasma; details: substrate 2.0 μM, no cofactors, 37° C.
[3] = In vitro enzymatic release in human plasma; details: substrate 2.0 μM, no cofactors, 37° C.
[4] = biological target: T1, IBAT (Homo sapiens, UniProt Q12908); experiment: Inhibition of radiolabeled taurocholate uptake in IBAT-transfected CHO cells; format: cell-based; parameters: expressed in transfected cells; host or cells: CHO cells; details: radiolabeled competition assay in transporter-expressing CHO cells
T1 sequence (Q12908 whole entry): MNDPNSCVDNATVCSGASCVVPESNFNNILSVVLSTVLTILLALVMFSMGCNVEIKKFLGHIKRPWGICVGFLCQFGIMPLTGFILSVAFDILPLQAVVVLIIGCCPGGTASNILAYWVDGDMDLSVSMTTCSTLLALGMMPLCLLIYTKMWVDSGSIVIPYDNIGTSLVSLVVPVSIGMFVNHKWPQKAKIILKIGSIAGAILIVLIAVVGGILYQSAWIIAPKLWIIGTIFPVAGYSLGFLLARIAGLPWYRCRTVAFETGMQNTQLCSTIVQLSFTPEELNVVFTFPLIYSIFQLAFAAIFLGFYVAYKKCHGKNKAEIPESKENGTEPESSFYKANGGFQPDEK
Experimental: (§1) CHO cells transfected with either the IBAT or LBAT transporter were seeded into 96-well microtiter plates at 100,000 cells/well in 100 μL DMEM containing 10% serum, glutamine and Penstrep. After overnight incubation the media was removed and test compound (25 μL) added at 2× the final desired concentration. Tritiated taurocholate (50,000 CPM/well) was diluted with cold substrate to a final concentration of 5 μM and 25 μL/well of this mixture was added to the plate. After incubating for 1 h at room temperature the solution was removed and the plate washed 4× with PBS at 4° C. 200 μL/well of scintillant is added and the plate then read in a Wallac microbeta counter. The inhibition data is processed by standard methods to calculate an inhibition constant Ki for the test compound.

[5] = biological target: T2, LBAT (Homo sapiens, UniProt Q14973); experiment: Inhibition of radiolabeled taurocholate uptake in LBAT-transfected CHO cells; format: cell-based; details: radiolabeled competition assay in transporter-expressing CHO cells
T2 construct: expressed in transfected cells; host or cells: CHO cells
T2 sequence (Q14973 whole entry): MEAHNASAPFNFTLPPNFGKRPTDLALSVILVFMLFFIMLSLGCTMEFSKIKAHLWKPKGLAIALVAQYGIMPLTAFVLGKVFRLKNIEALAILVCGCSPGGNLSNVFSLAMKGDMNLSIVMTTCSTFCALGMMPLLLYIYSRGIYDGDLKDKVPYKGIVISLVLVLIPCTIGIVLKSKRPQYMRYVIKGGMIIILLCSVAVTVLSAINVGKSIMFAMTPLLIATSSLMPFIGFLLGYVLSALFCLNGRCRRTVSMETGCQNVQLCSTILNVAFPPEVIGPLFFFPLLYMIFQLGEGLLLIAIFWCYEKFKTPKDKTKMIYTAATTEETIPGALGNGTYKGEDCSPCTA
Experimental: as §1

[6] = biological target: T1, IBAT; experiment: Electrogenic transport in Xenopus oocytes expressing IBAT; format: cell-based; details: relative to glycodeoxycholate
Source text: RNA preparation: Human IBAT and LBAT Transporter cDNAs were subcloned into a modified pGEM plasmid that contains 5′ and 3′ untranslated sequences from the Xenopus β-actin gene. These sequences increase RNA stability and protein expression. Plasmid cDNA was linearized and used as template for in vitro transcription (Epicentre Technologies transcription kit, 4:1 methylated:non-methylated GTP).
Xenopus oocyte isolation. Xenopus laevis frogs were anesthetized by immersion in Tricaine ([…] in deionized water) for 15 min. Oocytes were removed and digested in frog ringer solution (90 mM NaCl, 2 mM KCl, 1 mM MgCl2, 10 mM NaHEPES, pH 7.45, no CaCl2) with 1 mg/mL collagenase (Worthington Type 3) for 80-100 min with shaking. The oocytes were washed 6 times, and the buffer changed to frog ringer solution containing CaCl2 (1.8 mM). Remaining follicle cells were removed if necessary. Cells were incubated at 16° C., and each oocyte injected with […] RNA in […] solution.
Electrophysiology measurements. Transport currents were measured 2-14 days after injection, using a standard two-electrode electrophysiology set-up (Geneclamp 500 amplifier, Digidata 1320/PCLAMP software and ADInstruments hardware and software were used for signal acquisition). Electrodes ([…]) were microfabricated using a Sutter Instrument puller and filled with 3M KCl. The bath was directly grounded (transporter currents were less than 0.3 μA). Bath flow was controlled by an automated perfusion system (ALA Scientific Instruments, solenoid valves).
For transporter pharmacology, oocytes were clamped at −60 to −90 mV, and continuous current measurements acquired using PowerLab Software and an ADInstruments digitizer. Current signals were lowpass filtered at 20 Hz and acquired at 4-8 Hz. All bath and drug-containing solutions were frog ringers solution containing CaCl2. Drugs were applied for 10-30 seconds until the induced current reached a new steady-state level, followed by a control solution until baseline currents returned to levels that preceded drug application. The difference current (baseline subtracted from peak current during drug application) reflected the net movement of charge resulting from electrogenic transport and was directly proportional to tranport rate. Recordings were made from a single oocyte for up to 60 min, enabling 30-40 separate compounds to be tested per oocyte. […]. Using this normalization procedure Vmax (i.e. maximal induced current) for different compounds tested on different oocytes could be compared.

[7] = In vitro enzymatic release in human intestine S9; details: Human Intestine S9 (0.5 mg/mL); substrate 2.0 μM; NADPH; 37° C.
[8] = In vitro enzymatic release in human liver S9; details: Human Liver S9 (0.5 mg/mL); substrate 2.0 μM; NADPH; 37° C.
[9] = In vitro enzymatic release in rat liver S9; details: Rat Liver S9 (0.5 mg/mL); substrate 2.0 μM; NADPH; 37° C.
[10] = test system: pancreatin; experiment: Pancreatin stability; format: in vitro ADME, porcine; details: gabapentin (2) released by 1% (w/v) pancreatin; prodrug 5 μM; pH 7.5; 37° C.; 60 min
Experimental: Pancreatin Stability: Stability studies were conducted by incubating prodrug (5 μM) with 1% (w/v) pancreatin (Sigma, P-1625, from porcine pancreas) in 0.025 M Tris buffer containing 0.5 M NaCl (pH 7.5) at 37° C. for 60 min. The reaction was stopped by addition of 2 volumes of methanol. After centrifugation at 14,000 rpm for 10 min, the supernatant was removed and analyzed by LC/MS/MS.

[11] = biological target: T3, Aminopeptidase 1 (Streptomyces griseus subsp. griseus, UniProt P80561); experiment: Aminopeptidase stability; format: in vitro ADME; details: substrate 5.0 μM, no cofactors, pH 8.0, 37° C.
T3 construct: purchased Sigma A-9934
T3 sequence (P80561 46-329): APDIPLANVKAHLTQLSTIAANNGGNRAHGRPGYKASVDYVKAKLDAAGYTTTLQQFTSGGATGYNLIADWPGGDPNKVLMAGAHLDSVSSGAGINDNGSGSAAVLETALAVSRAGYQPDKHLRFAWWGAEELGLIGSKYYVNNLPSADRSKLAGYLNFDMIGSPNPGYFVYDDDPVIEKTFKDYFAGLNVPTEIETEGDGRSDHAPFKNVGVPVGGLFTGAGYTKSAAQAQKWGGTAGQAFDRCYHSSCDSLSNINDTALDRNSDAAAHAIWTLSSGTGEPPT
Experimental: Aminopeptidase Stability: Aminopeptidase 1 (Sigma catalog # A-9934) was diluted in deionised water to a concentration of 856 units/mL. Stability studies were conducted by incubating prodrug (5 μM) with 0.856 units/mL aminopeptidase 1 in 50 mM Tris-HCl buffer at pH 8.0 and 37° C. Concentrations of intact prodrug and released drug were determined at zero time and 60 minutes using LC/MS/MS.
Concentrations of (2), (4), (7g) or Phe-Gabapentin in tissue extracts were determined by direct injection onto an API 2000 LC/MS/MS equipped with an Agilent 1100 binary pump and autosampler. Separation was achieved using a 3.5 μm Zorbax Ellipse XDB-C8 4.4×150 mm column heated to 45° C. during the analysis. The mobile phases were: 0.1% formic acid in water (A) and 0.1% formic acid in acetonitrile (B). The gradient condition was: 2% B for 0.5 min, increasing to 90% B in 2.0 min, maintained for 2.5 min and returning to 2% B for 2 min. A TurbolonSpray source was used on the API 2000. The analysis was performed in the positive ion mode and MRM transitions of 709.5/172.1 and 172.0/137.2 were used in the analysis of Cholyl-Phe-Gabapentin (7g) and gabapentin (2) respectively. Ten microliters of the sample extracts were injected. Peaks were integrated using Analyst quantitation software. The method was linear for (7g) or (2) over the concentration range 0.01 to 12.5 μg/mL and 0.002 to 2.5 μg/mL respectively.

[12] = Caco-2 homogenate S9 stability; format: in vitro ADME; details: substrate 5.0 μM, no cofactors, 37° C.
Experimental: Caco-2 Homogenate S9 Stability. Caco-2 cells were grown for 21 days prior to harvesting. Culture medium was removed and cell monolayers were rinsed and scraped off into ice-cold 10 mM sodium phosphate/0.15 M potassium chloride, pH 7.4. Cells were lysed by sonication at 4° C. using a probe sonicator. Lysed cells were then transferred into 1.5 mL centrifuge vials and centrifuged at 9000 g for 20 min at 4° C. The resulting supernatant (Caco-2 cell homogenate S9 fraction) was aliquoted into 0.5 mL vials and stored at −80° C. until used.
For stability studies, prodrug (5 μM) was incubated in Caco-2 homogenate S9 fraction (0.5 mg protein per mL) for 60 min at 37° C. Concentrations of intact prodrug and released drug were determined at zero time and 60 minutes using LC/MS/MS.
Concentrations of (2), (4), (7g) or Phe-Gabapentin in tissue extracts were determined by direct injection onto an API 2000 LC/MS/MS equipped with an Agilent 1100 binary pump and autosampler. Separation was achieved using a 3.5 μm Zorbax Ellipse XDB-C8 4.4×150 mm column heated to 45° C. during the analysis. The mobile phases were: 0.1% formic acid in water (A) and 0.1% formic acid in acetonitrile (B). The gradient condition was: 2% B for 0.5 min, increasing to 90% B in 2.0 min, maintained for 2.5 min and returning to 2% B for 2 min. […] Peaks were integrated using Analyst quantitation software. […]

## N[C@@H](CCC(=O)O)C(=O)N[C@@H](CSC(=O)CN1C(=O)c2ccccc2C1=O)C(=O)NCC(=O)O [Compound (61), H-Glu-Cys(N-phthaloylglycyl)-Gly-OH]
[1]
  time at which liberated N-phthaloylglycine is apparent in plasma: ≤ 30 min

## Cholyl-Dopa-(4-pivaloyloxymethyl) [(21)]
[2]
  Percent of (20) Released in 60 min: 75%
[3]
  Percent of (20) Released in 60 min: 90%
[4]
  IC50: 91 µM
[5]
  IC50: 0.2 µM
[6]
  % Max. (GDC): 104%
[7]
  Percent of (20) Released in 60 min: 95%
[8]
  Percent of (20) Released in 60 min: 70%
[9]
  Percent of (20) Released in 60 min: 35%

## CC(CCC(=O)NC(Cc1ccc(O)cc1)C(=O)NCC1(CC(=O)O)CCCCC1)C1CCC2C3C(O)CC4CC(O)CCC4(C)C3CC(O)C12C (stereo not shown) [(7h), Cholyl-Tyr-Gabapentin]
[10]
  % (2) Released: 40%

## NC(Cc1ccccc1)C(=O)NCC1(CC(=O)O)CCCCC1 (stereo not shown) [Phe-Gabapentin]
[11]
  Percent of Gabapentin Released in 60 min: 24%
[2]
  Percent of Gabapentin Released in 60 min: 19%
[7]
  Percent of Gabapentin Released in 60 min: 5%
[8]
  Percent of Gabapentin Released in 60 min: 1%
[9]
  Percent of Gabapentin Released in 60 min: 1%
[12]
  Percent of Gabapentin Released in 60 min: 21%
